According to patent publication US20240410831A1, “Multi-Mode Zinc-Selective Emission-Ratiometric Fluorescent Probes for Biological Application” (Georgia Tech Research Corporation, priority 2023, published 2024):

Columns and labels:
[1] = Metal-ion selectivity measurement (emission-ratiometric response); type: physicochemical; conditions: liposomes, pH 7.0
Protocol: FIG. 5C illustrates an exemplary table providing exemplary photophysical properties of Formula I, Formula II, and/or a derivative thereof (e.g., for example probe 8) and its Zn(II)-probe complex in PIPES buffer containing 100 μM of 4:1 DMPC:DMPG liposomes (pH 7.0, 10 mM PIPES, 0.1 M KCl, 25° C.). The fluorescence response of the probe 8 (10 PM) was measured in the presence of 100 μM 4:1 DMPC:DMPG liposomes (pH 7.0, 10 mM PIPES, 0.1 M KCl, 25° C.) and an excess of selected biologically relevant divalent metal ions (FIG. 5A). […]
A solution of Formula I, Formula II, and/or a derivative thereof (e.g., for example probe 8) (10 μM) in Chelex®-PIPES buffer (10 mM, 0.1 M KCl, pH 7.0, 25° C.) containing 100 μM of liposomes (4:1 mixture of DMPC and DMPG) prepared in a quartz cuvette with a 1-cm pathlength. A fluorescence spectrum was acquired over the spectral window of 415-700 nm with excitation at 405 nm. Under magnetic stirring, the solution was supplemented with each divalent metal cation (8.0 μM, which corresponds to 80% fractional saturation of the probe, or 2.0 mM Ca(II) and Mg(II) ions), and a fluorescence spectrum was immediately acquired. […] The fluorescence spectrum was acquired after 10 min equilibration to ensure complete formation of the probe 8 Zn(II)-complex. […]

[2] = system: live mouse fibroblast 3T3 cells; assay: Ratiometric imaging of labile Zn(II) by laser confocal fluorescence microscopy (excitation at 405 nm); type: cell-based; conditions: for average fluorescence ratio R (BP2/BP1): confocal 405 nm
Protocol: With reference to FIG. 7B, ratiometric imaging of labile Zn(II) pools in live mouse fibroblast 3T3 cells with Formula I and/or Formula IA (e.g., for example probe 8) by TPEM (excitation at 405 nm). (A) of FIG. 7B Left: Intensities acquired with 520 nm-600 nm (BP2) and 440 nm-495 nm (BP1) bandpass filters respectively. Right: Intensity ratio imagines with R=BP2/BP1. (B) of FIG. 7B Left: Ratio images (BP2/BP1) before (prior to t=5 min) and after the addition of 50 μM ZnSO4 and 5.0 μM pyrithione. Addition of TPEN at t=15 min resulted the reversal of the initial fluorescence ratio change. (C) of FIG. 7B: Mean fluorescence ratio of the cytoplasmic region averaged over 10 cells (P values calculated for n=10 using a two-tailed test). (D) of FIG. 7B: Time course of the average ratio change for mean fluorescence ratio in the cytosol averaged over 10 cells.
To investigate whether Formula I, Formula II, and/or a derivative thereof (e.g., for example probe 8) may also be employed with one-photon excitation at 405 nm, the imagine experiment was repeated with a conventional confocal fluorescence microscope equipped with a 405 nm laser as the excitation source. […] The averaged fluorescence ratio indicated a uniform fractional saturation with an average ratio of R=0.57±0.04. […] The difference in fluorescence ratios is likely due to differences in the absorption cross sections for linear vs. non-linear excitation. In principle, the ratio response could be further tuned by adjusting the sensitivity of the bandpass detectors.
In various embodiments, mouse fibroblast (3T3) cells were grown on poly-L-lysine treated glass bottom culture dishes (MatTek) to 90% confluency in DMEM growth media supplemented with 10% bovine calf serum, and 1% penicillin-streptomycin. Before imaging, the media was replaced with pre-warmed colorless serum-free DMEM (1% penicillin-streptomycin, and 1% sodium pyruvate) containing 1.0 μM of probe 8. The cells were incubated at 37° C. under an atmosphere of humidified air containing 5% CO2 for 15 mins. The incubation solution was replaced with prewarmed colorless serum free DMEM. Images were acquired at 37° C., 8% humidity, and 5% CO2 using a Zeiss LSM NLO 710 microscope equipped with a femtosecond pulsed Ti:sapphire laser and a blue 405 nm laser. Scanning fluorescence micrographs were acquired with excitation at 405 nm or 750 nm and the emission was simultaneously collected with bandpass ranges of 495-440 nm (BP1) and 600-520 nm (BP2). Image J was used to evaluate the change in fluorescence emission ratio over time as previously described. The emission ratio for each region of interest was averaged at each time point.
TPEN solid was fully dissolved in anhydrous DMSO to a concentration of 3.0 mM. […]

[3] = Fluorescence quantum yield measurement; type: physicochemical; conditions: liposome solution, pH 7.0 PIPES
Protocol: The quantum yields of the free Formula I, Formula II, and/or a derivative thereof (e.g., for example probe 8) was determined using quinine sulfate as a reference (Df=0.546 in 1.0 N H2SO4). The quantum yield was derived from a 5-point measurement in Chelex®-treated PIPES buffer containing 100 μM of 4:1 DMPC:DMPG liposomes (pH 7.0, 10 mM PIPES, 0.1 M KCl, 25° C.). For the free compound 1 (e.g., for example probe 8 in FIG. 4H), the solutions were supplemented with 20 μM of EDTA (from a 3.0 mM stock solution in DI H2O). The quantum yield of the probe 8-Zn(II) complex was independently determined under the same conditions in the presence of 1.1 molar equivalent of Zn(OTf)2. The quantum yield of the Zn(II) complex was confirmed with fluorescence quantum yield ratio. The fluorescence quantum yields were calculated as an average of two independent measurements.

quantum yield ([3]; Zn(II)-probe complex): 78%
quantum yield ([3]; free probe): 72%
SMILES: COc1ccc2c(c1)C(C)(C)c1nc(-c3cccc(CN(Cc4ncccn4)Cc4ncccn4)n3)sc1-2 [probe 8]
fluorescence response to Ca(II) and Mg(II) ([1]; 2.0 mM of either metal ion): Neither Ca(II) nor Mg(II) resulted in any significant fluorescence change
fluorescence response to divalent transition metals ([1]; 0.8 molar equivalents of metal, 10 μM probe): quenching of the fluorescence
cellular uptake ([2]; 3T3 cells, confocal): readily internalized
average fluorescence ratio R (BP2/BP1) ([2]; after TPEN): 0.56±0.04
average fluorescence ratio R (BP2/BP1) ([2]; after Zn(II) and ionophore pyrithione): 1.04±0.12
average fluorescence ratio R (BP2/BP1) ([2]; basal): 0.57±0.04
